We go through five substances from patent publication US20030181362A1, “Receptor” (priority 2000, published 2003).

One experiment relates to Classical Pathway. Nature of the experiment: Inhibition of Classical pathway-mediated lysis of antibody-sensitized sheep erythrocytes in normal human serum. In kind it is biochemical. The protocol: To determine whether the interaction of C2 with ShTORE-ed-1 could affect the normal interaction of C2 with other complement proteins and thereby inhibit complement activation, the effect of the TORE-ed-1 peptide on complement activation was assessed. The ability of the TORE-ed-1 peptide to inhibit the lysis of antibody-sensitized sheep erythrocytes, in the presence of normal human serum, NHS (and therefore in the presence of complement proteins C1 through to […]), in a dose-dependent manner, was used as a measure of its ability to inhibit the Classical Pathway. The extent of haemolysis was determined by spectrophotometric measurement of haemoglobin release at 412 nm. An IC60 value of approximately 10 μM was found (FIG. 11A and B).
(§1) FIG. 11(A) and (B) Effect of increasing TORE-ed1 peptide on the complement-mediated lysis of sensitized sheep red blood cells in the presence of normal human serum as a source of complement. FIG. 11(C) and (D) Effect of increasing TORE-ed1 peptide preincubated with C2 on haemolysis in the presence of human serum in which C2 is limiting. FIG. 11(E) effect of various Tore peptides and Tore related C4b-derived peptides on complement mediated lysis.

Experiment [1] can be described thus: Immune complex inflammation in mouse ear (human albumin i.v., anti-HA s.c.). In kind it is in vivo, Mice. The protocol: FIG. 22: Mice (7 or 8 per group) injected with human albumin (HA) 10 mg/kg i.v. (200 μl of a solution 1 mg/ml in Evans blue1%). After 5 min anti-HA injected s.c. in situ (in ear). Test compounds then injected and after 4 h evaluations made for reduction of inflammation. Oedema was evaluated by weight. Plasma extravasation as measure of microvascular permeability or haemorrage was measured by extraction of extravasated Evan's blue dye with formamide from injected ears. As well as subcutaneous (s.c.) administration of H17 (the test compound of formula HEVKIKHFSPY at two concentrations), it was also given intravenously (0.1 mg/kg). The positive control for reduction in inflammation in this experiment was cromolyn.

The target of experiment [2] is T1, human complement C2 (Homo sapiens, UniProt P06681).
T1 sequence (P06681 21-752): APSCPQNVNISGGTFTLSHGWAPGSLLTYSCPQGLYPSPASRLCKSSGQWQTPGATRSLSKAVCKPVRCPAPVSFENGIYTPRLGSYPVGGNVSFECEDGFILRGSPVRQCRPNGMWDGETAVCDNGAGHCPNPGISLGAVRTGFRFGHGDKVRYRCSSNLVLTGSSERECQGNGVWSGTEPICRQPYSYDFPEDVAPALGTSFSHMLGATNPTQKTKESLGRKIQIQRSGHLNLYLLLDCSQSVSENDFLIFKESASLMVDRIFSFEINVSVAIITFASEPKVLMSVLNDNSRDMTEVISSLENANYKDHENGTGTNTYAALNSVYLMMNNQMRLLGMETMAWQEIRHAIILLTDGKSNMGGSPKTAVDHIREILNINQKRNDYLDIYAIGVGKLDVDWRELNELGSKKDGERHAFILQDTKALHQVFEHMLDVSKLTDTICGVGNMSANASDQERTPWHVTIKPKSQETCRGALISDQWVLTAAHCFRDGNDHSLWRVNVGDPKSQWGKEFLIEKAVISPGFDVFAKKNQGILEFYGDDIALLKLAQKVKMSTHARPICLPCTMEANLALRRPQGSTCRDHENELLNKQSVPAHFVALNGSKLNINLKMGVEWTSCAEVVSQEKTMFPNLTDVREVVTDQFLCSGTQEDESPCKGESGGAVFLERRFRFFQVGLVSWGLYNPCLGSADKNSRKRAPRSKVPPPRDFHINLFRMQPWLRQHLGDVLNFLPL
Nature of the experiment: Haemolysis with C2-deficient human serum reconstituted with C2, peptide preincubated with C2. In kind it is biochemical. The following applies: peptide preincubated with C2 before addition to C2-depleted serum. As to the method:
As an additional confirmation that TORE-ed-1 specifically binds to human complement C2, C2-deficient human serum with enough C2 added to reconstitute haemolytic activity, was used in the same assay.
as §1

Experiment [3] addresses T1, human complement C2. Kind of experiment: Receptor affinity chromatography with immobilised ed-1 peptide. In kind it is binding. Further details: One litre of serum-free medium which had maintained the cells; endogenous in cells; host or cells: THP-1 (human macrophage-like cells), conditioned serum-free medium. An excerpt: In order to identify a likely ligand, the putative ligand-binding domain of ShTORE, extracellular domain 1 (ed-1), was used in receptor affinity chromatography. It was assumed that the cells expressing the receptor themselves produced the ligand in an “autocrine” manner. The cells chosen were the macrophage-like (human) THP-1 cells. These were adapted to grow in conditioned, serum-free medium in order to increase the chances of finding the ligand for TORE. One litre of serum-free medium which had maintained the cells, and as a control one litre of serum-free medium without cells, was passed through identical epoxy-activated Sepharose 6B columns with the 27-mer ShTORE-ed-1 peptide attached. Fractions were collected from a low pH elution and 20 μl aliquots run on SDS-PAGE. An 83 kDa protein band was identified (FIG. 10A, lane 1). The fraction was concentrated, transferred to problot and stained with Coomassie Brilliant blue. The band was then excised and the N-terminal sequence determined. The resulting six residues indicated the protein to be human complement protein C2. The fully glycosylated version of C2, however should have been 102 kDa.

Consider “FEVKITPGKPY [C4b β chain derived peptide]”, for which the “complement inhibition in vitro” value in the experiment with Classical Pathway was “shown to inhibit complement in vitro”.

Take “HEVKIKHFSPY (shistosoma haematobium) [H17]”: in experiment [1] (1 μg dose, 4 h), the “reduction of haemorrage (Evans blue extravasation)” value is 30% and the “reduction of oedema (by weight)” value turned out to be 28%. Besides, in the experiment on Classical Pathway, the “complement inhibition in vitro” value is “capable of effective complement inhibition in vitro”.

For “HEVKIKSPY [TOR-ed1 peptide; probably a misprint of …]”, the “inflammation mediated by immune complexes and Classical pathway complement (Type III hypersensitivity)” value in experiment [1] (in vivo) is on record as “reduce inflammation”.

Turning to “NH2-Met-Ser-Pro-Ser-Leu-Val-Ser-Asp-Thr-Gln-Lys-His-Glu-Arg-Gly-Ser-His-Glu-Val-Lys-Ile-Lys-His-Phe-Ser-Pro-Tyr-CO2H (H-MSPSLVSDTQKHERGSHEVKIKHFSPY-OH) [TORE-ed-1 peptide, 27-mer peptide of extracellular domain 1 of ShTORE]”, in the experiment with human complement C2 [2], the “inhibition of haemolytic activity” value was “inhibit haemolytic activity”. The “interaction with C2” value with human complement C2 [3] was “interact with human complement protein C2”. Besides, the “complement inhibition in vitro” value in the experiment with Classical Pathway is “inhibit complement action in vitro”. Also, the “concentration able to inhibit the haemolytic activity of C2 from the Classical pathway” value in the experiment with Classical Pathway (normal human serum) stood at 10 µM. The “IC60, inhibition of lysis of antibody-sensitized sheep erythrocytes” value in the experiment with Classical Pathway (normal human serum, haemoglobin release at 412 nm) was “approximately 10 μM”.

Consider “SSTSDIRLVIHTKTGPIYIKST (shistosoma haematobium) [SEQ ID NO 2]”, for which the “complement inhibition in vitro” value in the experiment on Classical Pathway is on record as “inhibit complement action in vitro”.
